Test results from patent US20230128137A1, “BENZO FIVE-MEMBERED CYCLIC COMPOUND” (MEDSHINE DISCOVERY INC., priority 2020, published 2023).
Several values for one entry are separate records, joined by “and”; a condition that tells them apart may be missing. Identical values can stand only once. Like-named read-outs stand apart in the source and are kept apart here.

Legend:
[1] = In vivo pharmacokinetic property evaluation in CD-1 mice (IV and PO); settings: mouse, plasma; for MRT last: read-out: MRT0-last
Protocol: The in vivo pharmacokinetic properties of compound 2 were evaluated in CD-1 mice by intravenous administration and oral administration. IV (intravenous injection) refers to slow administration in jugular vein, and PO (oral administration) refers to administration by gavage. Formulations for intravenous and gavage administration were both 2.5% dimethylsulfoxide, 5% ethanol, 10% cremophor EL, 20% glucose solution (concentration of 5%), 62.5% water. PK time points in the intravenous injection group were 5 min, 15 min, 30 min, 1 h, 2 h, 4 h, 8 h, 12 h and 24 h after administration, respectively, and PK time points in the gastric administration group were 15 min, 30 min, 1 h, 2 h, 4 h, 8 h and 24 h after administration, respectively. Approximately 0.03 mL of blood was collected at each time point. Blood from each sample was transferred to a plastic microcentrifuge tube containing EDTA-K2, centrifuged at 4000 rpm for 5 min in a 4° C. centrifuge, and plasma was collected within 15 min, and the plasma samples were stored in polypropylene tubes. Before the test, samples were stored in a refrigerator at −75±15° C. The concentration of compounds in plasma samples was analyzed using the LCMS/MS method and the following pharmacokinetic parameters were calculated using WinNonlin software (Phoenix™, version 6.1): IV: C0, Cl, Vd, T1/2, AUC0-last, MRT0-last, regression points; PO: Cmax, Tmax, T1/2, AUC0-last, MRT0-last, regression points. Pharmacokinetic data were described using descriptive statistics, such as mean, standard deviation.

[2] = system: human acute lymphoblastic leukemia cell RS4;11 graft tumor; assay: In vivo anti-tumor effect, RS4;11 graft tumor model in BALB/c nude mice; parameters: species or system BALB/c nude mouse; settings: for T/C (relative tumor proliferation rate) / TGI (tumor growth inhibition rate): based on tumor volume on day 32
Protocol: 5.1 Experimental animals: Balb/c nude mice, 32 mice, 7 to 8 weeks old, female;
5.2 tumor cells: human acute lymphoblastic leukemia cell line RS4;11, cultured in a suspension in vitro, and the culture conditions were RPMI-1640 culture medium containing 10% fetal bovine serum, cultured in a 5% CO2 incubator at 37° C. When the cells were in exponential growth period and the saturation was 80% to 90%, the cells were collected and counted;
5.3 cell seeding and grouping: the cells were resuspended in […], and the basement membrane matrigel was added in 1:1, and the mixture was mixed well, and the density was 5×10^7 cells/mL. 0.2 mL of cell suspension (containing 1×10^7 RS4;11 cells) was subcutaneously inoculated on the right back of each mouse, and when the average tumor volume reached about 120 mm^3, the drug was administered randomly according to the tumor volume;
5.4 preparation of the subject: an appropriate amount of compound 2 was weighed respectively, and the solvent formula was 2.5% dimethyl sulfoxide, 5% ethanol, 10% cremophor EL, 20% glucose solution (concentration of 5%), 62.5% water;
5.5 tumor-bearing mice divided into four groups (8 mice in each group) were given blank solvent, compound 2 (12.5 mpk, QD), compound 2 (25 mpk, QD) and compound 2 (50 mpk, QD), respectively;
5.6 tumor measurement and experimental indicators:
tumor diameters were measured with vernier calipers two times a week. The calculation formula of tumor volume is: V=0.5×a×b^2, a represents the long diameter of the tumor, and b represents the short diameter of the tumor. The tumor inhibition efficacy of the compounds was evaluated by TGI (%) or relative tumor proliferation rate T/C (%).
Relative tumor proliferation rate T/C %=TRTV/CRTV×100% (TRTV: RTV in the treatment group; CRTV: RTV in the negative control group). The relative tumor volume (RTV) is calculated according to the results of tumor measurement, and the formula is RTV=Vt/V0, where V0 is the tumor volume measured at the time of group administration (i.e., D0), and Vt is the tumor volume measured at a certain measurement, TRTV and CRTV were taken on the same day.
TGI (%), reflecting the tumor growth inhibition rate. The formula for calculating the tumor inhibition efficacy TGI is: […]

CC1(C)CCC(CN2CCN(c3ccc(C(=O)NS(=O)(=O)c4cc([N+](=O)[O-])c(NCC5CCOCC5)c5[nH]cnc45)c(Oc4cnc5[nH]ccc5c4)c3)CC2)=C(c2ccc(Cl)cc2)C1 [Compound 2]
AUC(0-t) ([1]; 1 mg/kg, IV, 1 mpk): 1.8 µM·h
C0 ([1]; 1 mg/kg, IV, 1 mpk): 11.7 µM
clearance ([1]; 1 mg/kg, IV, 1 mpk): 10.2 mL/min/kg
half-life ([1]; 1 mg/kg, IV, 1 mpk): 201 min
MRT last ([1]; 1 mg/kg, IV, 1 mpk): 1.21 h
Vd ([1]; 1 mg/kg, IV, 1 mpk, read-out: Vdss): 0.834 L/kg
AUC(0-t) ([1]; 50 mg/kg, PO, 50 mpk): 12.8 µM·h
Cmax ([1]; 50 mg/kg, PO, 50 mpk): 1790 nM
Tmax ([1]; 50 mg/kg, PO, 50 mpk): 3 h
half-life ([1]; 50 mg/kg, PO, 50 mpk): 246 min
MRT last ([1]; 50 mg/kg, PO, 50 mpk): 6.22 h
animal state during the experiment ([2]; 12.5, 25, 50 mpk, QD): normal
T/C (relative tumor proliferation rate) ([2]; 12.5 mpk, QD): 22.37%
TGI (tumor growth inhibition rate) ([2]; 12.5 mpk, QD): 82.12%
Tumor volume ([2]; 12.5 mpk, QD, day 1 after administration, mean ± SEM, n = 8): 114.44 ± 4.91 mm^3 and 114.44 mm^3
Tumor volume ([2]; 12.5 mpk, QD, day 4 after administration): 124.75 ± 10.85 mm^3
Tumor volume ([2]; 12.5 mpk, QD, day 6 after administration): 120.60 ± 12.60 mm^3
Tumor volume ([2]; 12.5 mpk, QD, day 8 after administration): 124.22 ± 15.25 mm^3
Tumor volume ([2]; 12.5 mpk, QD, day 11 after administration): 126.73 ± 11.57 mm^3
Tumor volume ([2]; 12.5 mpk, QD, day 14 after administration): 145.41 ± 17.58 mm^3
Tumor volume ([2]; 12.5 mpk, QD, day 18 after administration): 198.17 ± 38.18 mm^3
Tumor volume ([2]; 12.5 mpk, QD, day 21 after administration): 209.63 ± 39.56 mm^3
Tumor volume ([2]; 12.5 mpk, QD, day 25 after administration): 254.52 ± 52.29 mm^3
Tumor volume ([2]; 12.5 mpk, QD, day 28 after administration): 306.93 ± 66.01 mm^3
Tumor volume ([2]; 12.5 mpk, QD, day 32 after administration, mean ± SEM, n = 8): 365.13 ± 85.31 mm^3 and 365.13 mm^3
T/C (relative tumor proliferation rate) ([2]; 25 mpk, QD): 16.54%
TGI (tumor growth inhibition rate) ([2]; 25 mpk, QD): 89.15%
Tumor volume ([2]; 25 mpk, QD, day 1 after administration, mean ± SEM, n = 8): 114.50 ± 4.98 mm^3 and 114.50 mm^3
Tumor volume ([2]; 25 mpk, QD, day 4 after administration): 99.54 ± 6.66 mm^3
Tumor volume ([2]; 25 mpk, QD, day 6 after administration): 106.03 ± 13.15 mm^3
Tumor volume ([2]; 25 mpk, QD, day 8 after administration): 107.66 ± 15.62 mm^3
Tumor volume ([2]; 25 mpk, QD, day 11 after administration): 101.57 ± 15.87 mm^3
Tumor volume ([2]; 25 mpk, QD, day 14 after administration): 116.52 ± 28.85 mm^3
Tumor volume ([2]; 25 mpk, QD, day 18 after administration): 146.77 ± 44.03 mm^3
Tumor volume ([2]; 25 mpk, QD, day 21 after administration): 191.06 ± 69.68 mm^3
Tumor volume ([2]; 25 mpk, QD, day 25 after administration): 174.50 ± 58.56 mm^3
Tumor volume ([2]; 25 mpk, QD, day 28 after administration): 206.82 ± 76.64 mm^3
Tumor volume ([2]; 25 mpk, QD, day 32 after administration, mean ± SEM, n = 8): 266.63 ± 95.51 mm^3 and 266.63 mm^3
T/C (relative tumor proliferation rate) ([2]; 50 mpk, QD): 7.30%
TGI (tumor growth inhibition rate) ([2]; 50 mpk, QD): 100.27%
Tumor volume ([2]; 50 mpk, QD, day 1 after administration, mean ± SEM, n = 8): 114.18 ± 4.30 mm^3 and 114.18 mm^3
Tumor volume ([2]; 50 mpk, QD, day 4 after administration): 95.13 ± 7.43 mm^3
Tumor volume ([2]; 50 mpk, QD, day 6 after administration): 91.16 ± 6.08 mm^3
Tumor volume ([2]; 50 mpk, QD, day 8 after administration): 86.91 ± 4.92 mm^3
Tumor volume ([2]; 50 mpk, QD, day 11 after administration): 67.64 ± 3.93 mm^3
Tumor volume ([2]; 50 mpk, QD, day 14 after administration): 74.27 ± 6.37 mm^3
Tumor volume ([2]; 50 mpk, QD, day 18 after administration): 58.39 ± 6.94 mm^3
Tumor volume ([2]; 50 mpk, QD, day 21 after administration): 70.21 ± 8.91 mm^3
Tumor volume ([2]; 50 mpk, QD, day 25 after administration): 75.62 ± 10.30 mm^3
Tumor volume ([2]; 50 mpk, QD, day 28 after administration): 78.03 ± 9.52 mm^3
Tumor volume ([2]; 50 mpk, QD, day 32 after administration, mean ± SEM, n = 8): 110.37 ± 19.73 mm^3 and 110.37 mm^3
tumor inhibition effect (in words) ([2]; three dose groups (12.5, 25, 50 mpk, QD), obvious dose-dependence): significant tumor inhibition effect
